For one assay, the target named is T1, MC1R (Homo sapiens, UniProt Q01726).
T1 construct: human melanocyte culture coded 1753 that expressed functional MC1R; endogenous in cells; host or cells: human melanocyte culture coded 1753
Nature of the assay: Effects on cAMP in human melanocyte culture 1753 (radioimmunoassay). In kind it is cell-based. As to the method: The compound with formula structure Ac-Nle-Glu-His-D-Phe-homoArg-Trp-NH2 of the invention was tested using human melanocyte culture coded 1753 that expressed functional MC1R. The melanocytes were plated at a density of 0.3*10^6 cells/well. After 48 hours, the melanocytes were treated with different compound concentrations (10^−12 to 10^−7 M) for 1 hour. A control without compound was included in the test. […] The reaction was stopped by addition of 50 μl 1 N HCl and the supernatant in each well was used to measure cAMP using a radioimmunoassay as described by Suzuki 1996 (Suzuki I, Cone R D, Im S, Nordlund J J, Abdel-Malek Z: “Binding of melanotropic hormones to the MC1 receptor on human melanocytes stimulates proliferation and melanogenesis”. Endocrinology 137: 1627-1633, 1996). Duplicate samples from each well were assayed with triplicate wells included in each group. The mean of 6 cAMP measurements per group was expressed as % of the control group. Statistical analysis was carried out using ANOVA followed by Newman Kuels test. In some cases, unpaired t-test was used.

In another assay the test system is tyrosinase. Nature of the assay: Effects on tyrosinase activity in human melanocyte culture 1750 (3H-labeled tyrosine). Type of assay: cell-based. The method, then: The compound with formula structure Ac-Nle-Glu-His-D-Phe-homoArg-Trp-NH2 of the invention was tested using human melanocyte culture coded 1750 that expressed functional MC1R. The melanocytes were plated at a density of 0.3*10^6 cells onto 60 mm dishes (triplicate dishes/group). After 48 hours, the melanocytes were treated every other day for a total of six days with different doses (10^−12 M to 10^−7 M) of the compound. A control without compound was included in the test. […] On treatment day 5, ^3H-labeled tyrosine, the substrate for tyrosinase, was added and 24 hours later, the supernatant was saved to be assayed for tyrosinase activity as described by Suzuki et al (see example 2). Duplicate samples from each were assayed, with triplicate dishes included in each group. Cell number in each dish was counted, and tyrosinase activity was expressed as dpm/10^6 cells and as % of the control. Statistical analysis was carried out using ANOVA followed by Newman Kuels test.
It will be understood that this tyrosinase activation test relates to a late event after MC1R activation, compared to the earlier secondary messenger effect of the above cAMP test. As pointed out above, activity of tyrosinase requires days of treatment.

Setting [1] is: concentrations from 10^−10 M to 10^−7M.

Non-standard residues stand in square brackets, D forms with d. hArg = N=C(N)NCCCC[C@H](N)C(=O)O; Nle = CCCC[C@H](N)C(=O)O

T1 sequence (Q01726 whole entry): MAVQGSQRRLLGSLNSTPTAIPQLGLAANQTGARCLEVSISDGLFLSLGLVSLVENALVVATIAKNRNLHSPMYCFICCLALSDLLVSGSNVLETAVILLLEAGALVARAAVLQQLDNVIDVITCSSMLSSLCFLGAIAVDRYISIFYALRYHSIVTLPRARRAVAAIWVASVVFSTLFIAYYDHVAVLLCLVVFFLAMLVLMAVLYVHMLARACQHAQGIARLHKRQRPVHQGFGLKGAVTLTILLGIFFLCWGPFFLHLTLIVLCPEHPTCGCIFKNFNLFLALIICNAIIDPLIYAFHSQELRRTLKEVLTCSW

On to “Ac-[Nle]EH[dF][hArg]W-NH2 [compound of the invention]”, for which the “cAMP, highest efficacy, expressed as % of the control group” value on MC1R (10^−7M, 1 hour treatment, human melanocyte culture 1753 expressing functional MC1R) was 216%. The “cAMP results statistically different compared to the control (p<0.05)” value at MC1R (setting [1]) was “statistically different compared to the control”. Besides, the “tyrosinase activity, highest efficacy, % of the control” value in the assay with tyrosinase (10^−8 M, six days of treatment, human melanocyte culture 1750 expressing functional MC1R) was found to be 227%. In the assay on tyrosinase (10^−9 M, six days of treatment, human melanocyte culture 1750 expressing functional MC1R), the “tyrosinase activity, efficacy, % of the control” value worked out at 198%. The “tyrosinase activity results statistically different compared to the control (p<0.05)” value with tyrosinase (setting [1]) is given as “statistically different compared to the control”.

(Values after US20180086789A1, “PHARMACEUTICAL COMPOUND” (VALLAURIX PTE. LTD., priority 2015, published 2018).)
